This assay concerns P388 leukemia ip, CD2F1 mice, survival T/C. Put plainly: NCI In Vivo Anticancer Drug Screen. Data for tumor model P388 Leukemia (intraperitoneal) in CD2F1 (CDF1) mice. The settings on record: endpoint: median survival time, higher = longer survival. In outline:
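Mice carrying the transplanted tumor received test compound or vehicle. Survival was recorded in each group, and the value is the treated-group measurement divided by that of the vehicle-treated control group.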

Setting [1] is: dose: 1.0 mg/kg/injection, schedule: Q01DX005 (ip), vehicle: Klucel (hydroxypropylcellulose) (HPC).
[2] abbreviates: dose: 2.0 mg/kg/injection, schedule: Q01DX005 (ip), vehicle: Klucel (hydroxypropylcellulose) (HPC).
The mark [3] stands for this setting: dose: 8.75 mg/kg/injection, schedule: Q01DX005 (ip), vehicle: Klucel (hydroxypropylcellulose) (HPC).
[4] abbreviates: dose: 17.5 mg/kg/injection, schedule: Q01DX005 (ip), vehicle: Klucel (hydroxypropylcellulose) (HPC).
[5] abbreviates: dose: 35.0 mg/kg/injection, schedule: Q01DX005 (ip), vehicle: Klucel (hydroxypropylcellulose) (HPC).
Where [6] appears, read: dose: 50.0 mg/kg/injection, schedule: Q01DX005 (ip), vehicle: Klucel (hydroxypropylcellulose) (HPC).
Setting [7] is: dose: 100.0 mg/kg/injection, schedule: Q01DX005 (ip), vehicle: Klucel (hydroxypropylcellulose) (HPC).
Where [8] appears, read: dose: 200.0 mg/kg/injection, schedule: Q01DX005 (ip), vehicle: Klucel (hydroxypropylcellulose) (HPC).
Setting [9] is: dose: 50.0 mg/kg/injection, schedule: Q01DX009 (ip), vehicle: saline.
Where [10] appears, read: dose: 100.0 mg/kg/injection, schedule: Q01DX009 (ip), vehicle: saline.
Where [11] appears, read: dose: 200.0 mg/kg/injection, schedule: Q01DX009 (ip), vehicle: saline.
The mark [12] stands for this setting: dose: 100.0 mg/kg/injection, schedule: Q04DX003 (ip), vehicle: saline with Tween-80.
Setting [13] is: dose: 200.0 mg/kg/injection, schedule: Q04DX003 (ip), vehicle: saline with Tween-80.
The mark [14] stands for this setting: dose: 12.5 mg/kg/injection, schedule: Q01DX009 (ip), vehicle: saline with Tween-80.
[15] abbreviates: dose: 25.0 mg/kg/injection, schedule: Q01DX009 (ip), vehicle: saline with Tween-80.
The mark [16] stands for this setting: dose: 50.0 mg/kg/injection, schedule: Q01DX009 (ip), vehicle: saline with Tween-80.
[17] abbreviates: dose: 60.0 mg/kg/injection, schedule: Q01DX005 (ip), vehicle: saline with Tween-80.
[18] abbreviates: dose: 120.0 mg/kg/injection, schedule: Q01DX005 (ip), vehicle: saline with Tween-80.
Setting [19] is: dose: 240.0 mg/kg/injection, schedule: Q01DX005 (ip), vehicle: saline with Tween-80.

The structures appear in SMILES notation. Where “and” joins values, the source holds several entries; their conditions need not be identical. Identical values can stand only once. Inconclusive results and toxic doses are left out.

`CC(C)(O)[C@@H]1Cc2cc3ccc(=O)oc3cc2O1`: the T/C is 89 % of control under setting [1]; 102 % of control under setting [2]; 98 % of control (dose: 4.0 mg/kg/injection, schedule: Q01DX005 (ip), vehicle: Klucel (hydroxypropylcellulose) (HPC)); 96 % of control (dose: 8.0 mg/kg/injection, schedule: Q01DX005 (ip), vehicle: Klucel (hydroxypropylcellulose) (HPC)); 96 % of control (dose: 16.0 mg/kg/injection, schedule: Q01DX005 (ip), vehicle: Klucel (hydroxypropylcellulose) (HPC)).
With `CC1=CC(=O)[C@@H](O)[C@]2(C)[C@H]3[C@@]4(O)OC[C@]35[C@H]([C@@H](CO)[C@H]4O)[C@@H](OC3OC(CO)C(O)C(O)C3O)C(=O)O[C@@H]5C[C@@H]12` (stereo partly drawn), the T/C is 99 % of control (dose: 0.25 mg/kg/injection, schedule: Q01DX005 (ip), vehicle: Klucel (hydroxypropylcellulose) (HPC)); 99 % of control (dose: 0.5 mg/kg/injection, schedule: Q01DX005 (ip), vehicle: Klucel (hydroxypropylcellulose) (HPC)); 98 % of control under setting [1]; 96 % of control (dose: 1.87 mg/kg/injection, schedule: Q01DX005 (ip), vehicle: Klucel (hydroxypropylcellulose) (HPC)); 100 % of control under setting [2].
Consider `C=CC(C)(C)N1C(=O)C(C(C)=O)=C(O)C1Cc1c[nH]c2ccccc12` (stereo not drawn), for which the T/C by setting is: under setting [3], 99 % of control; under setting [4], 99 % of control; under setting [5], 97 % of control.
With `CCOC(=O)C(=O)C1Cc2c(C)cc3cnc(OCC)cc3c2C1=O` (stereo not drawn), the T/C was 92 % of control (dose: 12.5 mg/kg/injection, schedule: Q01DX009 (ip), vehicle: distilled water + Tween-80); 89 % of control (dose: 25.0 mg/kg/injection, schedule: Q01DX009 (ip), vehicle: distilled water + Tween-80); 92 % of control (dose: 100.0 mg/kg/injection, schedule: Q01DX009 (ip), vehicle: distilled water + Tween-80); 92 % of control (dose: 200.0 mg/kg/injection, schedule: Q01DX009 (ip), vehicle: distilled water + Tween-80).
As for `CC1=C(CO)C(=O)OC(C(C)C2CCC3C4CC5OC56C(O)C(N5CC5)=CC(=O)C6(C)C4CCC23C)C1` (stereo not drawn), the T/C reads like this: (dose: 5.0 mg/kg/injection, schedule: Q01DX005 (ip), vehicle: Klucel (hydroxypropylcellulose) (HPC)) 110 % of control; (dose: 10.0 mg/kg/injection, schedule: Q01DX005 (ip), vehicle: Klucel (hydroxypropylcellulose) (HPC)) 120 % of control and 91 % of control and 97 % of control; (dose: 20.0 mg/kg/injection, schedule: Q01DX005 (ip), vehicle: Klucel (hydroxypropylcellulose) (HPC)) 103 % of control and 104 % of control and 123 % of control; (dose: 40.0 mg/kg/injection, schedule: Q01DX005 (ip), vehicle: Klucel (hydroxypropylcellulose) (HPC)) 103 % of control and 106 % of control and 123 % of control; (dose: 80.0 mg/kg/injection, schedule: Q01DX005 (ip), vehicle: Klucel (hydroxypropylcellulose) (HPC)) 108 % of control and 109 % of control; (dose: 160.0 mg/kg/injection, schedule: Q01DX005 (ip), vehicle: Klucel (hydroxypropylcellulose) (HPC)) 105 % of control.
Take `CN(C)c1ccc(/C=C/C(=O)c2ccc(Nc3ccnc4cc(Cl)ccc34)cc2)cc1`: the T/C (dose: 400.0 mg/kg/injection, schedule: Q04DX002 (ip), vehicle: saline with Tween-80) was 93 % of control.
For `CC1C(c2ccc3c(c2)OCO3)CC(Cl)CC12C=C1OCOC1=CC2=O` (stereo not drawn), the T/C was 101 % of control under setting [3], 101 % of control under setting [4] and 105 % of control under setting [5].
`O=C1OC(c2ccccc2)=N/C1=C\c1ccccc1O`: the T/C was 101 % of control under setting [6], 101 % of control under setting [7] and 93 % of control under setting [8].
For `CCCCCCCCCCCC(=O)N(C)CCOC(=O)C(C)(C)C`, the T/C runs as follows: under setting [9], 106 % of control; under setting [10], 98 % of control; under setting [11], 116 % of control.
Regarding `c1ccc2c(c1)Cc1c(-c3ccncc3)n[nH]c1-2`, the T/C is 100 % of control (dose: 25.0 mg/kg/injection, schedule: Q04DX003 (ip), vehicle: saline with Tween-80); 98 % of control (dose: 50.0 mg/kg/injection, schedule: Q04DX003 (ip), vehicle: saline with Tween-80); 94 % of control under setting [12]; 94 % of control under setting [13].
As for `Cc1ccccc1-c1nc2c(N)nc(N)nc2nc1N`, the T/C is 109 % of control under setting [12]; 172 % of control (dose: 200.0 mg/kg/injection, schedule: Q01DX009 (ip), vehicle: saline with Tween-80); 109 % of control under setting [13]; 113 % of control (dose: 264.0 mg/kg/injection, schedule: Q04DX003 (ip), vehicle: saline with Tween-80); 109 % of control (dose: 300.0 mg/kg/injection, schedule: Q01DX009 (ip), vehicle: saline with Tween-80); 113 % of control (dose: 400.0 mg/kg/injection, schedule: Q04DX003 (ip), vehicle: saline with Tween-80).
On to `Fc1ccc(NC(=S)S)cc1`, for which the T/C was 104 % of control (dose: 6.25 mg/kg/injection, schedule: Q01DX009 (ip), vehicle: saline with Tween-80); 100 % of control (dose: 6.25 mg/kg/injection, schedule: Q04DX003 (ip), vehicle: saline); 104 % of control under setting [14]; 115 % of control (dose: 12.5 mg/kg/injection, schedule: Q04DX003 (ip), vehicle: saline); 104 % of control under setting [15]; 100 % of control (dose: 25.0 mg/kg/injection, schedule: Q04DX003 (ip), vehicle: saline).
Consider `C=C[Se](=C(C(C)=O)C(C)=O)c1ccccc1` (stereo not drawn), for which the T/C was 97 % of control under setting [14]; 96 % of control under setting [15]; 98 % of control under setting [16]; 92 % of control under setting [9]; 99 % of control under setting [10]; 92 % of control under setting [11].
Consider `Cc1cc(C)n(-c2ccc(Cl)nn2)n1`, for which the T/C by setting is: under setting [9], 99 % of control; under setting [10], 95 % of control; under setting [11], 100 % of control.
In the case of `COc1ccc(NC(=O)N2CC3CCN2CC3)cc1`, the T/C was 99 % of control under setting [17], 93 % of control under setting [18] and 90 % of control under setting [19].
In the case of `CCCCOCN(COCCCC)C(C)Cc1ccccc1` (stereo not drawn), the T/C under setting [15] is 120 % of control.
Consider `CC(=O)c1ccc[n+](Cc2ccc([N+](=O)[O-])cc2)c1`, for which the T/C runs as follows: under setting [15], 95 % of control; under setting [16], 100 % of control; (dose: 100.0 mg/kg/injection, schedule: Q01DX009 (ip), vehicle: saline with Tween-80) 90 % of control.
Regarding `C=C(C)C#CC1(O)C=C(OC)C(OC)=CC1=O` (stereo not drawn), the T/C by setting is: under setting [17], 105 % of control; under setting [18], 107 % of control; under setting [19], 88 % of control.
Take `COc1ccc(/C=N\N=C(/[O-])c2ccccc2O)cc1.COc1ccc(/C=N\N=C(/[O-])c2ccccc2O)cc1.[Cu+2].[OH3+].[OH3+]`: the T/C is 98 % of control (dose: 25.0 mg/kg/injection, schedule: Q04DX002 (ip), vehicle: saline with Tween-80); 93 % of control (dose: 50.0 mg/kg/injection, schedule: Q04DX002 (ip), vehicle: saline with Tween-80); 93 % of control (dose: 100.0 mg/kg/injection, schedule: Q04DX002 (ip), vehicle: saline with Tween-80).
Regarding `Cc1[nH][nH]c(=O)c1C=Nc1ccccc1`, the T/C is, setting by setting: under setting [6], 103 % of control; under setting [7], 100 % of control; under setting [8], 95 % of control.
As to `Cc1ccc(N)c(O)c1`, the T/C is, setting by setting: under setting [10], 102 % of control and 105 % of control; under setting [11], 100 % of control and 103 % of control; (dose: 400.0 mg/kg/injection, schedule: Q01DX009 (ip), vehicle: saline) 101 % of control and 113 % of control; (dose: 600.0 mg/kg/injection, schedule: Q01DX009 (ip), vehicle: saline) 115 % of control.
